# Biological target: AAK1 (full length human) (Homo sapiens, UniProt Q2M2I8)
# Assay: HEK281 Cell-Based Assay (phospho-mu2 Western blot in HEK293F cells transfected with AAK1 and AP2M1)
# Details: IC50 (nM), functional potency; inhibition of mu2 phosphorylation in HEK293F cells, 3 hours incubation, 5 concentrations
# Sequence of AAK1 (full length human) (Q2M2I8 1-863 isoform Q2M2I8-2): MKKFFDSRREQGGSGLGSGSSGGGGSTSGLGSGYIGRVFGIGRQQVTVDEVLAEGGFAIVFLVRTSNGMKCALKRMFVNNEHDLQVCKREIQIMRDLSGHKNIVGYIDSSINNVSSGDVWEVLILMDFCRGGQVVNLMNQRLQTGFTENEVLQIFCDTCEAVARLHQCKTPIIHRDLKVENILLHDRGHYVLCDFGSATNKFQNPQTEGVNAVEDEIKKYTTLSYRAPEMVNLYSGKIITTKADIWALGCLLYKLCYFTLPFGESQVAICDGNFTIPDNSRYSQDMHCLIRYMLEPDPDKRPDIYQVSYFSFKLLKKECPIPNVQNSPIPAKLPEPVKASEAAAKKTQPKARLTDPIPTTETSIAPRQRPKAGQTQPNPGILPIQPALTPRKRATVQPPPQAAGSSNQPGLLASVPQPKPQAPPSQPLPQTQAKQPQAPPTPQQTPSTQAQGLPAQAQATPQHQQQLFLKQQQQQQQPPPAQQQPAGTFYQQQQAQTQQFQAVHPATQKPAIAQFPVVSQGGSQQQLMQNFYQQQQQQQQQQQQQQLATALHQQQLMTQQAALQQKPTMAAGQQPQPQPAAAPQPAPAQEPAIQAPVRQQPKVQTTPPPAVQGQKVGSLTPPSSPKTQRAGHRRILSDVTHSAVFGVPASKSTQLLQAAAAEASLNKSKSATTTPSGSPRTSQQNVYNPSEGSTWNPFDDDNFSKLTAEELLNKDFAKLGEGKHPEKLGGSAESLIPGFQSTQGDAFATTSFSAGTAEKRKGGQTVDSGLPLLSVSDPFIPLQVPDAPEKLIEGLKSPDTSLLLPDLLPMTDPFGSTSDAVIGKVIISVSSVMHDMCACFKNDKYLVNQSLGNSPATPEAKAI
row,Compound,IC50 [nM]
1,"CCc1nc(C(N)CC(C)C)nc2cc(OC)c(-c3cnco3)cc12 (single isomer, unassigned; enantiomer 1) [Example 86, 1-(4-Ethyl-7-methoxy-6-(oxazol-5-yl)quinazolin-2-yl)-3-methylbutan-1-amine (Enantiomer 1)]",87
2,"CC(C)CC(N)c1ncc2cc(-c3cnco3)ccc2n1 (stereo not drawn) [Example 1, 3-Methyl-1-(6-(oxazol-5-yl)quinazolin-2-yl)butan-1-amine]",420
3,"Cc1nc(C(N)CC(C)C)nc2ccc(-c3cnco3)cc12 (stereo not drawn) [Example 2, 3-Methyl-1-(4-methyl-6-(oxazol-5-yl)quinazolin-2-yl)butan-1-amine]",170
4,"CCCc1nc(C(N)CC(C)C)nc2ccc(-c3cnco3)cc12 (stereo not drawn) [Example 4, 3-Methyl-1-(6-(oxazol-5-yl)-4-propylquinazolin-2-yl)butan-1-amine]",5300
5,"CCc1nc(C(N)CC2CCCCC2)nc2ccc(-c3ccncc3)cc12 (stereo not drawn) [Example 9, 2-Cyclohexyl-1-(4-ethyl-6-(pyridin-4-yl)quinazolin-2-yl)ethanamine]",260
6,"CCc1nc(CCC2CCCC2)nc2ccc(-c3ccncc3)cc12 [Example 10, 2-(2-Cyclopentylethyl)-4-ethyl-6-(pyridin-4-yl)quinazoline]",4800
7,"COc1c(-c2cnco2)ccc2nc(C(N)CC(C)C)ncc12 (stereo not drawn) [Example 11, 1-(5-Methoxy-6-(oxazol-5-yl)quinazolin-2-yl)-3-methylbutan-1-amine]",360
8,"CC(C)CC(N)c1nc2ccc(-c3cnco3)cc2c(=O)[nH]1 (stereo not drawn) [Example 12, 2-(1-Amino-3-methylbutyl)-6-(oxazol-5-yl)quinazolin-4-ol]",140
9,"CC(C)CC(N)c1nc2ccc(-c3ccncc3)cc2c(=O)[nH]1 (stereo not drawn) [Example 13, 2-(1-Amino-3-methylbutyl)-6-(pyridin-4-yl)quinazolin-4-ol]",93
10,"COc1nc(C(N)CC(C)C)nc2ccc(-c3cnco3)cc12 (stereo not drawn) [Example 14, 1-(4-Methoxy-6-(oxazol-5-yl)quinazolin-2-yl)-3-methylbutan-1-amine]",230
11,"CCOc1nc(C(N)CC(C)C)nc2ccc(-c3cnco3)cc12 (stereo not drawn) [Example 15, 1-(4-Ethoxy-6-(oxazol-5-yl)quinazolin-2-yl)-3-methylbutan-1-amine]",410
12,"CNc1nc(C(N)CC(C)C)nc2ccc(-c3cnco3)cc12 (stereo not drawn) [Example 16, 2-(1-Amino-3-methylbutyl)-N-methyl-6-(oxazol-5-yl)quinazolin-4-amine]",210

# The next compounds have a lower IC50 than those just listed; values first:
row,IC50 [nM],Compound
1,61,"CCc1nc(C(N)C2CCCCC2)nc2ccc(-c3ccncc3)cc12 (single isomer, unassigned; (+)) [Example 8, (+)-Cyclohexyl(4-ethyl-6-(pyridin-4-yl)quinazolin-2-yl)methanamine]"
2,8,"CCc1nc(C(N)C2CCCCC2)nc2ccc(-c3ccncc3)cc12 (single isomer, unassigned; (-)) [Example 7, (−)-Cyclohexyl(4-ethyl-6-(pyridin-4-yl)quinazolin-2-yl)methanamine]"
3,13,"CCc1nc(C(N)CC(C)C)nc2cc(OC)c(-c3cnco3)cc12 (single isomer, unassigned; enantiomer 2) [Example 87, 1-(4-Ethyl-7-methoxy-6-(oxazol-5-yl)quinazolin-2-yl)-3-methylbutan-1-amine (Enantiomer 2)]"
4,77,"CCc1nc(C(N)CC(C)C)nc2ccc(-c3cnco3)cc12 (stereo not drawn) [Example 3, 1-(4-Ethyl-6-(oxazol-5-yl)quinazolin-2-yl)-3-methylbutan-1-amine]"
5,75,"CCc1nc(C(N)CC(C)C)nc2c(OC)cc(-c3cnco3)cc12 (stereo not drawn) [Example 5, 1-(4-Ethyl-8-methoxy-6-(oxazol-5-yl)quinazolin-2-yl)-3-methylbutan-1-amine]"
6,36,"CCc1nc(C(N)CC(C)C)nc2ccc(-c3ccncc3OC)cc12 (stereo not drawn) [Example 6, 1-(4-Ethyl-6-(3-methoxypyridin-4-yl)quinazolin-2-yl)-3-methylbutan-1-amine]"
